In brackets after ≈: the same amount, converted by molar mass.
Assays:
Type in all cases: functional
Staphylococcus aureus [1] = assay: Antibacterial activity against Staphylococcus aureus RN4220 by CLSI method
Staphylococcus aureus [2] = assay: Antibacterial activity against Staphylococcus aureus RN4220 harboring aadD, tet(L), dfrK and vga(C) gene by CLSI method
Staphylococcus aureus [3] = assay: Antibacterial activity against Staphylococcus aureus RN4220 harboring aadD and tet(L) gene by CLSI method
Staphylococcus aureus [4] = assay: Antibacterial activity against Staphylococcus aureus RN4220 harboring tet(L), dfrK gene by CLSI method

Row | SMILES | MIC (Staphylococcus aureus [1]) [µg/mL] | MIC (Staphylococcus aureus [2]) [µg/mL] | MIC (Staphylococcus aureus [3]) [µg/mL] | MIC (Staphylococcus aureus [4]) [µg/mL]
1 | CCC[C@@H]1C[C@@H](C(=O)N[C@@H]([C@H]2O[C@H](SC)[C@H](O)[C@@H](O)[C@H]2O)[C@H](C)Cl)N(C)C1 [CLINDAMYCIN] | ≤ 0.12 | 2 (≈ 4.71 µM) | – | –
2 | CC[C@H]1OC(=O)[C@H](C)[C@@H](O[C@H]2C[C@@](C)(OC)[C@@H](O)[C@H](C)O2)[C@H](C)[C@@H](O[C@@H]2O[C@H](C)C[C@H](N(C)C)[C@H]2O)[C@](C)(O)C[C@@H](C)C(=O)[C@H](C)[C@@H](O)[C@]1(C)O [ERYTHROMYCIN] | 0.25 (≈ 0.341 µM) | 0.25 (≈ 0.341 µM) | 0.25 (≈ 0.341 µM) | 0.25 (≈ 0.341 µM)
3 | NC[C@@H]1O[C@H](O[C@H]2[C@@H](O)[C@H](O[C@@H]3[C@@H](O)[C@H](N)C[C@H](N)[C@H]3O[C@H]3O[C@H](CN)[C@@H](O)[C@H](O)[C@H]3N)O[C@@H]2CO)[C@H](N)[C@@H](O)[C@@H]1O [FRAMYCETIN] | ≤ 1 | 64 (≈ 104 µM) | 64 (≈ 104 µM) | –
4 | NC[C@H]1O[C@H](O[C@H]2[C@H](O)[C@@H](O[C@H]3O[C@H](CO)[C@@H](O)[C@H](N)[C@H]3O)[C@H](N)C[C@@H]2N)[C@H](O)[C@@H](O)[C@@H]1O [KANAMYCIN] | 4 (≈ 8.26 µM) | 32 (≈ 66 µM) | 32 (≈ 66 µM) | 4 (≈ 8.26 µM)
5 | CCC[C@@H]1C[C@@H](C(=O)N[C@@H]([C@H]2O[C@H](SC)[C@H](O)[C@@H](O)[C@H]2O)[C@@H](C)O)N(C)C1 [LINCOMYCIN] | 1 (≈ 2.46 µM) | 64 (≈ 157 µM) | 1 (≈ 2.46 µM) | 1 (≈ 2.46 µM)
6 | CC[C@@H]1CCN[C@H](C(=O)N[C@@H]([C@H]2O[C@H](SC)[C@H](O)[C@@H](O)[C@H]2O)[C@H](C)Cl)C1 [PIRLIMYCIN] | 0.25 (≈ 0.608 µM) | 4 (≈ 9.73 µM) | 0.25 (≈ 0.608 µM) | 0.25 (≈ 0.608 µM)
7 | CN(C)[C@@H]1C(O)=C(C(N)=O)C(=O)[C@@]2(O)C(O)=C3C(=O)c4c(O)cccc4[C@@](C)(O)[C@H]3C[C@@H]12 [TETRACYCLINE] | 0.06 (≈ 0.135 µM) | 64 (≈ 144 µM) | 64 (≈ 144 µM) | 64 (≈ 144 µM)
8 | C=C[C@]1(C)C[C@@H](OC(=O)CSCCN(CC)CC)[C@]2(C)[C@H](C)CC[C@]3(CCC(=O)[C@H]32)[C@@H](C)[C@@H]1O [TIAMULIN] | 0.06 (≈ 0.122 µM) | ≥ 128 | 0.06 (≈ 0.122 µM) | 0.06 (≈ 0.122 µM)
9 | COc1cc(Cc2cnc(N)nc2N)cc(OC)c1OC [TRIMETHOPRIM] | 0.5 (≈ 1.72 µM) | ≥ 512 | 0.5 (≈ 1.72 µM) | ≥ 512
10 | C=C[C@]1(C)C[C@@H](OC(=O)CSC(C)(C)CNC(=O)[C@H](N)C(C)C)[C@]2(C)[C@H](C)CC[C@]3(CCC(=O)[C@H]32)[C@@H](C)[C@@H]1O [VALNEMULIN] | 0.03 (≈ 0.0531 µM) | ≥ 128 | 0.03 (≈ 0.0531 µM) | 0.03 (≈ 0.0531 µM)
11 | CC1=C\[C@@H](O)CC(=O)Cc2nc(co2)C(=O)N2CCC=C2C(=O)O[C@H](C(C)C)[C@H](C)/C=C/C(=O)NC\C=C\1 [VIRGINIAMYCIN FACTOR M1] | 4 (≈ 7.61 µM) | 32 (≈ 60.9 µM) | 4 (≈ 7.61 µM) | 4 (≈ 7.61 µM)

From ChEMBL document CHEMBL1649544, “Novel ABC transporter gene, vga(C), located on a multiresistance plasmid from a porcine methicillin-resistant Staphylococcus aureus ST398 strain” (2009)
